Starred links: 1 amine or outer side, 2 acyl side, 3 side chain; linkers in the order of their positions; H or OH if unused. Residues, ends and D or L forms follow the SMILES beside them. Groups on a side chain read outwards from the residue. *: point of attachment. γGlu = O=C(O)[C@H](CCC(=O)[*:2])N[*:1]; Palmitoyl = CCCCCCCCCCCCCCCC(=O)*
Legend:
[1] = system: C57BL/6 mice; assay: Glucose tolerance in mice; format: in vivo; conditions: PP peptide 25 nmol/kg with CCK‐8 25 nmol/kg and glucose 18 mmol/kg i.p.; n = 6
Experimental: Acute in vivo studies were conducted in groups (n = 6) of 4‐month‐old male C57BL/6 mice (Envigo, Huntington, UK). All mice were maintained on standard rodent chow (10% fat, 30% protein, and 60% carbohydrate; Trouw Nutrition, Northwich, UK), and drinking water provided ad libitum. Mice were housed individually and kept in a temperature‐controlled environment (22 ± 2°C), with a 12‐h light/dark cycle. Experiments were carried out in accordance with the UK Animal Scientific Procedures Act 1986 as well as being approved by Ulster University Animal Ethics Review Committee (AWERB) committee and protected by the UK Home Office Animal project license number PPL2902, approved on April 26, 2021. Acute effects of test peptides on food intake were tested in overnight (16 h) fasted mice. Briefly, fasted mice were administered an intraperitoneal (i.p.) injection of saline vehicle (0.9% (w/v) NaCl) alone or in combination with test peptides (each at 25, 75, or 200 nmol/kg bw) and cumulative food intake measured at regular intervals, to assess the pharmacodynamic profile of the test peptides. For food intake studies, mice were provided with preweighed rodent maintenance diet in their food hopper at t = 0 min, which was then re‐weighed at each timepoint with all due care taken to account for any wastage or crumbling of the food pellets. In this regard, the investigator was present at all times during the 180‐min test period to ensure accuracy and consistency in all measurements. Furthermore, effects of PP or related peptides (25 nmol/kg bw) on glucose homeostasis and insulin secretion were evaluated in overnight fasted mice following i.p. injection of glucose alone (18 mmol/kg bw) or in combination with PP peptides (each at 25 nmol/kg bw). […] Blood glucose was measured immediately using a hand‐held Ascencia Contour blood glucose meter (Bayer Healthcare, Newbury, Berkshire, UK). […]

[2] = In vitro DPP‐4 degradation; format: in vitro ADME, human; conditions: isolated enzyme; peptide 50 μg with purified human DPP‐4 (5 μL, 0.01 U/L), 37°C, 8 h; stopped with 10% (v/v) trifluoroacetic acid; rp‐HPLC C‐18, UV 214 nm; peaks by MALDI‐MS; read-out: % intact peptide after 8 h DPP‐4 incubation
Experimental: PP peptides (50 μg) were incubated at 37°C for 0–8 h with 5 μL of purified human DPP‐4 enzyme (0.01 U/L, Sigma‐Aldrich, Gillingham, UK). Degradation reactions were terminated via the addition of 10 μL 10% (v/v) trifluoroacetic acid/water solution. Reaction mixes were separated by reverse phase rp‐HPLC using a Phenomenex C‐18 analytical column (250 × 4.6 mm^2) with UV absorbance detection at 214 nm (ThermoQuest SpectraSystem UV2000 detector). HPLC peaks of interest were collected and analyzed by MALDI‐TOF MS on a Perseptive Biosystems Voyager‐DE Biospectrometry (Hertfordshire, UK).

[3] = system: C57BL/6 mice; assay: Acute food intake in overnight fasted mice; format: in vivo; conditions: i.p., overnight fasted mice
Experimental: Acute in vivo studies were conducted in groups (n = 6) of 4‐month‐old male C57BL/6 mice (Envigo, Huntington, UK). All mice were maintained on standard rodent chow (10% fat, 30% protein, and 60% carbohydrate; Trouw Nutrition, Northwich, UK), and drinking water provided ad libitum. Mice were housed individually and kept in a temperature‐controlled environment (22 ± 2°C), with a 12‐h light/dark cycle. Experiments were carried out in accordance with the UK Animal Scientific Procedures Act 1986 as well as being approved by Ulster University Animal Ethics Review Committee (AWERB) committee and protected by the UK Home Office Animal project license number PPL2902, approved on April 26, 2021. Acute effects of test peptides on food intake were tested in overnight (16 h) fasted mice. Briefly, fasted mice were administered an intraperitoneal (i.p.) injection of saline vehicle (0.9% (w/v) NaCl) alone or in combination with test peptides (each at 25, 75, or 200 nmol/kg bw) and cumulative food intake measured at regular intervals, to assess the pharmacodynamic profile of the test peptides. For food intake studies, mice were provided with preweighed rodent maintenance diet in their food hopper at t = 0 min, which was then re‐weighed at each timepoint with all due care taken to account for any wastage or crumbling of the food pellets. In this regard, the investigator was present at all times during the 180‐min test period to ensure accuracy and consistency in all measurements. Furthermore, effects of PP or related peptides (25 nmol/kg bw) on glucose homeostasis and insulin secretion were evaluated in overnight fasted mice following i.p. injection of glucose alone (18 mmol/kg bw) or in combination with PP peptides (each at 25 nmol/kg bw).

[4] = system: C57BL/6 mice; assay: Glucose‐stimulated plasma insulin in mice; format: in vivo; conditions: peptide 25 nmol/kg with glucose 18 mmol/kg i.p., versus glucose control; n = 6
Experimental: Acute in vivo studies were conducted in groups (n = 6) of 4‐month‐old male C57BL/6 mice (Envigo, Huntington, UK). All mice were maintained on standard rodent chow (10% fat, 30% protein, and 60% carbohydrate; Trouw Nutrition, Northwich, UK), and drinking water provided ad libitum. Mice were housed individually and kept in a temperature‐controlled environment (22 ± 2°C), with a 12‐h light/dark cycle. Experiments were carried out in accordance with the UK Animal Scientific Procedures Act 1986 as well as being approved by Ulster University Animal Ethics Review Committee (AWERB) committee and protected by the UK Home Office Animal project license number PPL2902, approved on April 26, 2021. Acute effects of test peptides on food intake were tested in overnight (16 h) fasted mice. Briefly, fasted mice were administered an intraperitoneal (i.p.) injection of saline vehicle (0.9% (w/v) NaCl) alone or in combination with test peptides (each at 25, 75, or 200 nmol/kg bw) and cumulative food intake measured at regular intervals, to assess the pharmacodynamic profile of the test peptides. For food intake studies, mice were provided with preweighed rodent maintenance diet in their food hopper at t = 0 min, which was then re‐weighed at each timepoint with all due care taken to account for any wastage or crumbling of the food pellets. In this regard, the investigator was present at all times during the 180‐min test period to ensure accuracy and consistency in all measurements. Furthermore, effects of PP or related peptides (25 nmol/kg bw) on glucose homeostasis and insulin secretion were evaluated in overnight fasted mice following i.p. injection of glucose alone (18 mmol/kg bw) or in combination with PP peptides (each at 25 nmol/kg bw). […] Blood glucose was measured immediately using a hand‐held Ascencia Contour blood glucose meter (Bayer Healthcare, Newbury, Berkshire, UK). For plasma insulin, blood was collected in chilled fluoride/heparin‐coated microcentrifuge tubes (Sarstedt, Numbrecht, Germany) and centrifuged using a Beckman microcentrifuge (Beckman Instruments, Galway, Ireland) for 10 min at 12,000 rpm. Plasma was separated and stored at −20°C, until determination of plasma insulin by radioimmunoassay.[23]

SMILES: CCCCCCCCCCCCCCCC(=O)N[C@@H](CCC(=O)NCCCC[C@H](NC(=O)[C@H](C)NC(=O)[C@H](CC(N)=O)NC(=O)[C@H](CC(=O)O)NC(=O)CNC(=O)[C@@H]1CCCN1C(=O)[C@H](Cc1ccc(O)cc1)NC(=O)[C@@H](NC(=O)[C@@H]1CCCN1C(=O)[C@H](CCC(=O)O)NC(=O)[C@@H]1CCCN1C(=O)[C@@H]1CCCN1C(=O)[C@H](C)N)C(C)C)C(=O)N1CCC[C@H]1C(=O)N[C@@H](CCC(=O)O)C(=O)N[C@@H](CCC(N)=O)C(=O)N[C@@H](CCSC)C(=O)N[C@@H](C)C(=O)N[C@@H](CCC(N)=O)C(=O)N[C@@H](Cc1ccc(O)cc1)C(=O)N[C@@H](C)C(=O)N[C@@H](C)C(=O)N[C@@H](CC(=O)O)C(=O)N[C@@H](CC(C)C)C(=O)N[C@@H](CCCNC(=N)N)C(=O)N[C@@H](CCCNC(=N)N)C(=O)N[C@@H](Cc1ccc(O)cc1)C(=O)N[C@H](C(=O)N[C@@H](CC(N)=O)C(=O)N[C@@H](CCSC)C(=O)N[C@@H](CC(C)C)C(=O)N[C@H](C(=O)N[C@@H](CCCNC(=N)N)C(=O)N1CCC[C@H]1C(=O)N[C@@H](CCCNC(=N)N)C(=O)N[C@@H](Cc1ccc(O)cc1)C(N)=O)[C@@H](C)O)[C@@H](C)CC)C(=O)O [[P^3,K^13Pal]PP] (H-APPEPVYPGDNAK([γGlu-Palmitoyl])PEQMAQYAADLRRYINMLTRPRY-NH2; N-terminus assumed)
- effect on CCK‐8 benefit on glucose disposal [1]: mildly impair the overall glucose‐lowering action of CCK‐8
- remaining at 8 h [2]: > 99%
- food intake in overnight fasted mice, summary in discussion [3]: retained impressive effects to restrict food intake
- glucose‐induced insulin secretion (plasma insulin) [4]: slightly decreasing (p = <0.05 to 0.01)
